The term IC50 denotes the point on the concentration scale where inhibition reaches its midpoint.

The experiment deals with T1, purified recombinant 11β-HSD1 (Homo sapiens, UniProt P28845).
T1 construct: made in house; host or cells: E. coli
Kind of experiment: Biological Test Example 1: inhibition of purified 11β-HSD1, Scintillation Proximity Assay. The class given is biochemical. Particulars: purified recombinant 11β-HSD1 (expressed in E. coli), SPA; read-out: Biological Test Example 1 IC50 Range. As to the method:
The inhibition of purified 11β-HSD1 by compounds of Formula I is measured using a Scintillation Proximity Assay. […] The reaction is then incubated for 90 minutes, and stopped by adding 50 μl of SPA bead mix (18-β-glycyrrhetinic acid, 10 μM final, 5 mg/ml protein A coated YSi SPA beads, and 1 ug/ml α-cortisol antibody (East Coast Biologics)). The plate is shaken for 120 minutes, and the radioactivity corresponding to ^3H cortisol is measured on a Wallac Microbeta.

Each structure is given as a SMILES string. A value given as a limit tells only on which side of the number the result lay.

T1 sequence (P28845 whole entry, species assumed): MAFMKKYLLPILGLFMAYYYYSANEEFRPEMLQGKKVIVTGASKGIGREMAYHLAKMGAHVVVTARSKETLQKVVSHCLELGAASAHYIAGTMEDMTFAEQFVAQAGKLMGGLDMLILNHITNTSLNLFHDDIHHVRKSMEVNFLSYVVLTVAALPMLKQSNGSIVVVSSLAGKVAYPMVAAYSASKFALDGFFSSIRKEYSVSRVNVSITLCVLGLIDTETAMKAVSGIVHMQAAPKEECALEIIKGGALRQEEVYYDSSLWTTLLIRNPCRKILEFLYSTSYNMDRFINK

In the case of `CC(C)(C)OC(=O)NCC1CN(C(=O)NC2C3CC4CC(C3)CC2C4)C1` (stereo not drawn) [Example 52, tert-butyl (1-(2-adamantylcarbamoyl)azetidin-3-yl)methylcarbamate], the IC50 was less than 100 nM.
With `CC(C)(C)OC(=O)NC1CCN(C(=O)NC2C3CC4CC(C3)CC2C4)CC1` (stereo not drawn) [Example 53, tert-butyl 1-(2-adamantylcarbamoyl)piperidin-4-ylcarbamate], the IC50 is 100 to 1000 nM.
As to `CC(C)(C)OC(=O)NC[C@@H]1CCN(C(=O)NC2C3CC4CC(C3)CC2C4)C1` (stereo partly drawn) [Example 54, (S)-tert-butyl (1-(2-adamantylcarbamoyl)pyrrolidin-3-yl)methylcarbamate], the IC50 is less than 100 nM.
Then `CN(C(=O)OC(C)(C)C)C1CCN(C(=O)NC2C3CC4CC(C3)CC2C4)C1` (stereo not drawn) [Example 55, tert-butyl 1-(2-adamantylcarbamoyl)pyrrolidin-3-yl(methyl)carbamate], with less than 100 nM; and `CC(C)(C)OC(=O)N[C@@H]1CCCN(C(=O)NC2C3CC4CC(C3)CC2C4)C1` (stereo partly drawn) [Example 56, (R)-tert-butyl 1-(2-adamantylcarbamoyl)piperidin-3-ylcarbamate], with less than 100 nM.
On to `CC(C)(C)OC(=O)N[C@H]1CCCN(C(=O)NC2C3CC4CC(C3)CC2C4)C1` (stereo partly drawn) [Example 57, (S)-tert-butyl 1-(2-adamantylcarbamoyl)piperidin-3-ylcarbamate], for which the IC50 was less than 100 nM.
